Where a name gives a salt, the structure may show the parent alone. Read-outs that look alike come from different tables or passages of the source.
Biological target: T1, SIRT1 (Homo sapiens, UniProt Q96EB6)
T1 sequence (Q96EB6 1-747): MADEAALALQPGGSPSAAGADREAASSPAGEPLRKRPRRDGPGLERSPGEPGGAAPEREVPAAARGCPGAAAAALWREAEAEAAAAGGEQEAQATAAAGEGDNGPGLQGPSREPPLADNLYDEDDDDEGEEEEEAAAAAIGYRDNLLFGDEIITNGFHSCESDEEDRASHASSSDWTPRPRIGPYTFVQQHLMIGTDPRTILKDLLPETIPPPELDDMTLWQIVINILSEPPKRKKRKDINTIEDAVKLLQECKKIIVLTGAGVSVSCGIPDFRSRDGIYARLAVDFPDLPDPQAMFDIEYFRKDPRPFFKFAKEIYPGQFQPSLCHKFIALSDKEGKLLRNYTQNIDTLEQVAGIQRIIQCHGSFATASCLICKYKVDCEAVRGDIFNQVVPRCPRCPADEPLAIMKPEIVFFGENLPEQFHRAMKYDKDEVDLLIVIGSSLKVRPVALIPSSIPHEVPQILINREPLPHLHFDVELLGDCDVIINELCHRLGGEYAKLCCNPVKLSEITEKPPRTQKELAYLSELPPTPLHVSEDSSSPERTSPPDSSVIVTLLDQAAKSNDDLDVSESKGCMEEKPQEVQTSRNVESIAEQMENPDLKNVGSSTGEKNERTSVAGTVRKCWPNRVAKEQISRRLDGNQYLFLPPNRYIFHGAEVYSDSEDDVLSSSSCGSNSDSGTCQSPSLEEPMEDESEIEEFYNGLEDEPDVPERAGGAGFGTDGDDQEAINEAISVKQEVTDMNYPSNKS
Assay: Trp mass spectrometry assay of SIRT1 activation
Format: biochemical
Conditions: for TRP Activity (EC1.5): EC1.5 = concentration that results in 150% activation of SIRT1; for Emax: read-out: TRP MAX RESP (percent maximum fold activation)
Procedure, shortened: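 N-terminal His-tagged human SIRT1 (10 nM, E. coli BL21(DE3)) with 0.5 μM Ac-RHKK(Ac)W-NH2 peptide and 120 μM βNAD+, 25 min at 25 °C in HEPES pH 7.5, formic acid stop. OAADPR or deacetylated peptide quantified by mass spectrometry; EC1.5 (50% activity increase over control) and Percent Maximum Activation reported.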

[1] = Trp peptide assay, maximum activity relative to control (100%)
[2] = concentration giving 150% activation of SIRT1, Trp peptide substrate
[3] = Trp mass spectrometry assay, EC1.5 = concentration of test compound that results in 150% activation of SIRT1

Compound | TRP Activity (EC1.5) (Trp peptide assay) | Emax [1] | other results
CCn1cc(-c2ccc3c(n2)N(C(=O)Nc2cnccn2)[C@H]2CCN3C2)cn1 [(9S)-5-(1-ethyl-1H-pyrazol-4-yl)-N-(pyrazin-2-yl)-1,6,8-triazatricyclo[7.2.1.0 {2,7}]dodeca-2(7),3,5-triene-8-carboxamide] | B (B (EC1.5 1-25 μM)) | > 150% | 
O=C(Nc1cccc(-c2ccsc2)n1)N1c2nc(-c3cccc(C(F)(F)F)c3)ccc2N2CC[C@H]1C2 [Example 653] |  |  | Tryp AVG EC1.5 (μM) [2]: A (A (EC1.5<1 μM))
Cc1cc(-c2ccc3c(n2)N(C(=O)Nc2ncnc4[nH]cnc24)[C@H]2CCN3C2)ccn1 [(9S)-5-(2-methylpyridin-4-yl)-N-(9H-purin-6-yl)-1,6,8-triazatricyclo[7.2.1.0^{2,7}]dodeca-2,4,6-triene-8-carboxamide] | B (B (EC1.5 1-25 μM)) |  | Emax: > 150%
NCc1ccc(NC(=O)N2c3nc(-c4cccc(C(F)(F)F)c4)ccc3N3CCC[C@H]2C3)cc1 [444 (4), (9S)—N-(4-(aminomethyl)phenyl)-2-(3-(trifluoromethyl)phenyl)-8,9-dihydro-6H-5,9-methanopyrido[2,3-b][1,4]diazocine-10(7H)-carboxamide hydrochloride] |  |  | Tryp AVG EC1.5 (μM) [3]: A (A (EC1.5<1 μM))
O=C(Nc1cnccn1)N1c2nc(-c3ccc(Cl)c(Cl)c3)ccc2N2CC[C@H]1C2 [Example 461] |  |  | Tryp AVG EC1.5 (μM) [3]: A (A (EC1.5<1 μM))
Cn1ccc(-c2ccc3c(n2)N(C(=O)Nc2cnccn2)[C@H]2CCN3C2)cc1=O [(9S)-5-(1-methyl-2-oxo-1,2-dihydropyridin-4-yl)-N-(pyrazin-2-yl)-1,6,8-triazatricyclo[7.2.1.0^{2,7}]dodeca-2(7),3,5-triene-8-carboxamide] | B (B (EC1.5 1-25 μM)) | > 150% | 
O=C(Nc1ccccn1)N1c2nc(N3CCC[C@@H]3C(F)(F)F)ccc2N2CCC[C@H]1C2 [(9S)-N-(pyridin-2-yl)-5-[(2R)-2-(trifluoromethyl)pyrrolidin-1-yl]-1,6,8-triazatricyclo[7.3.1.0 {2,7}]trideca-2(7),3,5-triene-8-carboxamide] | A (A (EC1.5<1 μM)) | > 150% | 
O=C(Nc1ccccn1)N1c2nc(N3CCC[C@H](C(F)(F)F)C3)ccc2N2CCC[C@H]1C2 [drawing 1172, (9S)-N-(pyridin-2-yl)-5-[(3S)-3-(trifluoromethyl)piperidin-1-yl]-1,6,8-triazatricyclo[7.3.1.0 {2,7}]trideca-2(7),3,5-triene-8-carboxamide] | B (B (EC1.5 1-25 μM)) | > 150% | 
C#Cc1ccc(NC(=O)N2c3nc(-c4cccc(C5(C(F)(F)F)N=N5)c4)ccc3N3CC[C@H]2C3)nc1 [Example 803] |  |  | Tryp AVG EC1.5 (μM) [2]: A (A (EC1.5<1 μM))
Cc1ccc(-c2ccc3c(n2)N(C(=O)NC(C)C)[C@H]2CCN3C2)cn1 [(9S)-5-(6-methylpyridin-3-yl)-N-(propan-2-yl)-1,6,8-triazatricyclo[7.2.1.0^{2,7}]dodeca-2,4,6-triene-8-carboxamide] | B (B (EC1.5 1-25 μM)) | > 150% | 
CCCCC(=O)c1cccc(NC(=O)N2c3nc(-c4cccc(C(F)(F)F)c4)ccc3N3CC[C@H]2C3)c1 [Example 737] |  |  | Tryp AVG EC1.5 (μM) [2]: A (A (EC1.5<1 μM))
O=C(Nc1cnccn1)N1c2nc(-c3ccnc(CO)c3)ccc2N2CC[C@H]1C2 [(9S)-5-[2-(hydroxymethyl)pyridin-4-yl]-N-(pyrazin-2-yl)-1,6,8-triazatricyclo[7.2.1.0 {2,7}]dodeca-2(7),3,5-triene-8-carboxamide] | B (B (EC1.5 1-25 μM)) | > 150% | 
CS(=O)(=O)N1CCCN(c2ccc3c(n2)N(C(=O)Nc2ccncn2)[C@H]2CCCN3C2)CC1 [Example 433] |  |  | Tryp AVG EC1.5 (μM) [3]: B (B (EC1.5 1-25 μM))
O=C(Nc1cc(-c2cnco2)ccn1)N1c2nc(-c3cncc(C(F)(F)F)c3)ccc2N2C[C@@H](O)[C@H]1C2 [Example 726] |  |  | Tryp AVG EC1.5 (μM) [2]: B (B (EC1.5 1-25 μM))
O=C(Nc1ccccn1)N1c2nc(-c3cccc(Cl)c3)ccc2N2C[C@@H](O)[C@H]1C2 [Example 675] |  |  | Tryp AVG EC1.5 (μM) [2]: B (B (EC1.5 1-25 μM))
CC(C)C(=O)c1cccc(NC(=O)N2c3nc(-c4cccc(C(F)(F)F)c4)ccc3N3CC[C@H]2C3)c1 [Example 740] |  |  | Tryp AVG EC1.5 (μM) [2]: A (A (EC1.5<1 μM))
N#Cc1ccccc1-c1ccc2c(n1)N(C(=O)Nc1cncc(F)c1)[C@H]1CCCN2C1 [Example 439] |  |  | Tryp AVG EC1.5 (μM) [3]: B (B (EC1.5 1-25 μM))
O=C(Nc1ccccn1)N1c2nc(N3CCC[C@H]3C(F)(F)F)ccc2N2CCC[C@H]1C2 [(9S)-N-(pyridin-2-yl)-5-[(2S)-2-(trifluoromethyl)pyrrolidin-1-yl]-1,6,8-triazatricyclo[7.3.1.0 {2,7}]trideca-2(7),3,5-triene-8-carboxamide] | B (B (EC1.5 1-25 μM)) | > 150% | 
O=C(NCCn1ccnc1)N1c2nc(-c3cccc(C(F)(F)F)c3)ccc2N2CC[C@H]1C2 [Example 661] |  |  | Tryp AVG EC1.5 (μM) [2]: C (C (EC1.5>25 μM))
O=C(Nc1ccc(F)cn1)N1c2nc(N3CCCC(C(F)(F)F)C3)ccc2N2CCC[C@H]1C2 (stereo partly drawn) [Example 359] |  |  | Tryp AVG EC1.5 (μM) (Trp mass spectrometry assay, concentration of test compound giving 150% activation of SIRT1): A (A (EC1.5<1 μM))
Cc1ccc(-c2cccc(NC(=O)N3c4nc(-c5cccc(C(F)(F)F)c5)ccc4N4CC[C@H]3C4)c2)cc1C [Example 619] |  |  | Tryp AVG EC1.5 (μM) [3]: C (C (EC1.5>25 μM))
O=C(Nc1cnccn1)N1c2nc(-c3ccnc(N4CC[C@@H](F)C4)c3)ccc2N2CC[C@H]1C2 [Example 462] |  |  | Tryp AVG EC1.5 (μM) [3]: B (B (EC1.5 1-25 μM))
CS(=O)(=O)Nc1cccc(-c2ccc3c(n2)N(C(=O)Nc2cnccn2)[C@H]2CCN3C2)c1 [Example 418] |  |  | Tryp AVG EC1.5 (μM) [3]: B (B (EC1.5 1-25 μM))
Cc1cc(-c2ccc3c(n2)N(C(=O)Nc2cnccn2)[C@H]2CCN3C2)cc(C)n1 [(9S)-5-(2,6-dimethylpyridin-4-yl)-N-(pyrazin-2-yl)-1,6,8-triazatricyclo[7.2.1.0^{2,7}]dodeca-2,4,6-triene-8-carboxamide] | A (A (EC1.5<1 μM)) | > 150% | 
O=C(CCCCCNC(=O)c1ccc(-c2c3ccc(=O)cc-3oc3cc(O)ccc23)c(C(=O)O)c1)NCc1ccc(NC(=O)N2c3nc(-c4cccc(C(F)(F)F)c4)ccc3N3CCC[C@H]2C3)cc1 [546 (3), 2-(6-hydroxy-3-oxo-3H-xanthen-9-yl)-5-((6-oxo-6-((4-((9S)-2-(3-(trifluoromethyl)phenyl)-7,8,9,10-tetra-hydro-6H-5,9-methanopyrido[2,3-b][1,4]diazocine-10-carboxamido)benzyl)amino)hexyl)carbamoyl)benzoic acid] |  |  | Tryp AVG EC1.5 (μM) [3]: B (B (EC1.5 1-25 μM))
N#Cc1ccccc1-c1ccc2c(n1)N(C(=O)Nc1cccnc1)[C@H]1CCCN2C1 [Example 438] |  |  | Tryp AVG EC1.5 (μM) [3]: B (B (EC1.5 1-25 μM))
O=C(Nc1cccnc1)N1c2nc(-c3cccc(Cl)c3)ccc2N2C[C@@H](O)[C@H]1C2 [Example 681] |  |  | Tryp AVG EC1.5 (μM) [2]: B (B (EC1.5 1-25 μM))
O=C(NCCCc1ccncc1)N1c2nc(-c3cccc(C(F)(F)F)c3)ccc2N2CC[C@H]1C2 [Example 633] |  |  | Tryp AVG EC1.5 (μM) [2]: B (B (EC1.5 1-25 μM))

Further lines, with some results ahead:

TRP Activity (EC1.5) (Trp peptide assay) | Emax [1] | Compound | other results
B (B (EC1.5 1-25 μM)) | > 150% | Cc1cc(-c2ccc3c(n2)N(C(=O)Nc2nccc4[nH]cnc24)[C@H]2CCN3C2)ccn1 [(9S)-N-{1H-imidazo[4,5-c]pyridin-4-yl}-5-(2-methylpyridin-4-yl)-1,6,8-triazatricyclo[7.2.1.0 {2,7}]dodeca-2,4,6-triene-8-carboxamide] | 
C (C (EC1.5>25 μM)) | > 150% | Cc1cc(-c2ccc3c(n2)N(C(=O)Nc2ncn(C)n2)[C@H]2CCN3C2)ccn1 [(9S)-N-(1-methyl-1H-1,2,4-triazol-3-yl)-5-(2-methylpyridin-4-yl)-1,6,8-triazatricyclo[7.2.1.0 {2,7}]dodeca-2(7),3,5-triene-8-carboxamide] | 
B (B (EC1.5 1-25 μM)) | > 150% | Cc1ncc(-c2ccc3c(n2)N(C(=O)Nc2cnccn2)[C@H]2CCN3C2)cc1F [(9S)-5-(5-fluoro-6-methylpyridin-3-yl)-N-(pyrazin-2-yl)-1,6,8-triazatricyclo[7.2.1.0 {2,7}]dodeca-2(7),3,5-triene-8-carboxamide] | 
B (B (EC1.5 1-25 μM)) | > 150% | CC1CCN(c2ccc3c(n2)N(C(=O)Nc2cnccn2)[C@H]2CCN3C2)CC1 [(9S)-5-(4-methylpiperidin-1-yl)-N-(pyrazin-2-yl)-1,6,8-triazatricyclo[7.2.1.0 {2,7}]dodeca-2,4,6-triene-8-carboxamide] | 

Reference: patent US9834558B2, “Substituted bridged urea analogs as sirtuin modulators” (GLAXOSMITHKLINE LLC, priority 2013, dated 2017)
